In patent US12630528B2, “Amino aryl derivative useful as diacylglycerol acyltransferase 2 inhibitor and use thereof” (LG CHEM, LTD., priority 2019, dated 2026):

What follows are compounds tested against T1, human DGAT2 (Homo sapiens, UniProt Q96PD7) (assay: DGAT2 enzyme activity inhibition, Phospholipid FlashPlate SPA). Conditions: recombinant human DGAT2 membrane protein from Sf-21 cells; inhibition of [14C]-TG production; 37° C.
T1 construct: FLAG (DYKDDDDK); made in house; host or cells: Sf-21 insect cells (BacPAK baculovirus system); membrane fraction used
T1 sequence (Q96PD7 1-388): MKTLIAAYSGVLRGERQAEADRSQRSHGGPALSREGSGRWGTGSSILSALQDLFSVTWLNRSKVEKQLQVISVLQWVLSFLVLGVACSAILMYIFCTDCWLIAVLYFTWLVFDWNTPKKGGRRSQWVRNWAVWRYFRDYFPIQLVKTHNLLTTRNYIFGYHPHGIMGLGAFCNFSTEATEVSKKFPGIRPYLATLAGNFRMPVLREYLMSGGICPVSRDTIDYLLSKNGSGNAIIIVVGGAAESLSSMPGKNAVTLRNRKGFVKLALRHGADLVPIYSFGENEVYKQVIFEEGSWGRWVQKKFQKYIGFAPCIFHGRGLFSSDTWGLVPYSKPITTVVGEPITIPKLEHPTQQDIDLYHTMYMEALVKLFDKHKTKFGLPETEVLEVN
Type: biochemical
Summary of the method: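 Sf-21 membranes expressing recombinant human DGAT2 (2 μg) preincubated with compound (3 nM–10 μM, 1% DMSO) and 50 μM 1,2 sn-oleoyl glycerol, 20 min at 37 °C, then 1 μM [14C]oleoyl-CoA for 15 min. [14C]-TG counted by SPA; inhibition as % of untreated.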

SMILES	IC50 [nM]
CCOc1ccccc1O[C@@H]1CCCN(c2cncc(Nc3nccc(N4CCC(C(=O)O)C4)n3)n2)C1 (stereo partly drawn) [Example 118, 1-(2-((6-((R)-3-(2-ethoxyphenoxy)piperidin-1-yl)pyrazin-2-yl)amino)pyrimidin-4-yl)pyrrolidine-3-carboxylic Acid]	2000
CCOc1ccccc1O[C@@H]1CCCN(c2cncc(Nc3nccc(Oc4ccc(CC(=O)O)cc4)n3)n2)C1 [Example 162, (R)-2-(4-((2-((6-(3-(2-ethoxyphenoxy)piperidin-1-yl)pyrazin-2-yl)amino)pyrimidin-4-yl)oxy)phenyl)acetic Acid]	230
CCOc1cccnc1O[C@@H]1CCCN(c2cncc(Nc3ccc(F)c(-c4cc(CC(C)(C)C(=O)O)ccc4F)n3)n2)C1 [Example 106, (R)-3-(3-(6-((6-(3-((3-ethoxypyridin-2-yl)oxy)piperidin-1-yl)pyrazin-2-yl)amino)-3-fluoropyridin-2-yl)-4-fluorophenyl)-2,2-dimethylpropanoic Acid]	490
CCOc1ccccc1O[C@@H]1CCCN(c2cncc(Nc3nc4cc(C(C)(C)C(=O)O)ccc4o3)n2)C1 [Example 13, (R)-2-(2-((6-(3-(2-ethoxyphenoxy)piperidin-1-yl)pyrazin-2-yl)amino)benzo[d]oxazol-5-yl)-2-methylpropanoic Acid]	960
CCOc1ccccc1O[C@@H]1CCCN(c2cncc(Nc3nccc(-c4ccc(CC(C)(C)C(=O)O)cc4)n3)n2)C1 [Example 153, (R)-3-(4-(2-((6-(3-(2-ethoxyphenoxy)piperidin-1-yl)pyrazin-2-yl)amino)pyrimidin-4-yl)phenyl)-2,2-dimethylpropanoic Acid]	160
CCOc1cccnc1O[C@@H]1CCCN(c2cncc(Nc3nccc(-c4cccc(C(C)(C)C(=O)O)c4)n3)n2)C1 [Example 142, (R)-2-(3-(2-((6-(3-((3-ethoxypyridin-2-yl)oxy)piperidin-1-yl)pyrazin-2-yl)amino)pyrimidin-4-yl)phenyl)-2-methylpropanoic Acid]	380
CCOc1ccccc1O[C@@H]1CCCN(c2cncc(Nc3nc4ccc(CCC(=O)O)cc4o3)n2)C1 [Example 18, (R)-3-(2-((6-(3-(2-ethoxyphenoxy)piperidin-1-yl)pyrazin-2-yl)amino)benzo[d]oxazol-6-yl)propanoic Acid]	1100
CCOc1ccccc1O[C@@H]1CCCN(c2cncc(Nc3cccc(Oc4ccc(C(=O)O)cc4)n3)n2)C1 [Example 89, (R)-4-((6-((6-(3-(2-ethoxyphenoxy)piperidin-1-yl)pyrazin-2-yl)amino)pyridin-2-yl)oxy)benzoic Acid]	1200
CCOc1ccccc1O[C@@H]1CCCN(c2cncc(Nc3ncccc3C(=O)O)n2)C1 [Example 34, (R)-2-((6-(3-(2-ethoxyphenoxy)piperidin-1-yl)pyrazin-2-yl)amino)nicotinic Acid]	> 10000

The remaining compounds from weak to strong by IC50, led by results:

IC50 [nM]	SMILES
3700	CCOc1ccccc1O[C@@H]1CCCN(c2cncc(Nc3cc(-c4cccc(C(C)(C)C(=O)O)c4)ccn3)n2)C1 [Example 42, (R)-2-(3-(2-((6-(3-(2-ethoxyphenoxy)piperidin-1-yl)pyrazin-2-yl)amino)pyridin-4-yl)phenyl)-2-methylpropanoic Acid]
3100	CCOc1ccccc1O[C@@H]1CCCN(c2cncc(Nc3nc4cc(CC(C)(C)C(=O)O)ccc4o3)n2)C1 [Example 14, (R)-3-(2-((6-(3-(2-ethoxyphenoxy)piperidin-1-yl)pyrazin-2-yl)amino)benzo[d]oxazol-5-yl)-2,2-dimethylpropanoic Acid]
1500	CCOc1ccccc1O[C@@H]1CCCN(c2cncc(Nc3ccc(C(F)(F)F)c(-c4ccc(C(C)(C)C(=O)O)cc4)n3)n2)C1 [Example 109, (R)-2-(4-(6-((6-(3-(2-ethoxyphenoxy)piperidin-1-yl)pyrazin-2-yl)amino)-3-(trifluoromethyl)pyridin-2-yl)phenyl)-2-methylpropanoic Acid]
890	CCOc1ccccc1O[C@@H]1CCCN(c2cncc(Nc3cccc(-c4ccc(NCC(=O)O)cc4)n3)n2)C1 [Example 73, (R)-(4-(6-((6-(3-(2-ethoxyphenoxy)piperidin-1-yl)pyrazin-2-yl)amino)pyridin-2-yl)phenyl)glycine]
550	CCOc1ccccc1O[C@@H]1CCCN(c2nccc(Nc3nccc(-c4ccc(CC(C)(C)C(=O)O)cc4)n3)n2)C1 [Example 155, (R)-3-(4-(2-((2-(3-(2-ethoxyphenoxy)piperidin-1-yl)pyrimidin-4-yl)amino)pyrimidin-4-yl)phenyl)-2,2-dimethylpropanoic Acid]
440	CCOc1ccccc1O[C@@H]1CCCN(c2cncc(Nc3cc(C(C)(C)C(=O)O)ccn3)n2)C1 [Example 35, (R)-2-(2-((6-(3-(2-ethoxyphenoxy)piperidin-1-yl)pyrazin-2-yl)amino)pyridin-4-yl)-2-methylpropanoic Acid]
430	CCOc1ccccc1O[C@@H]1CCCN(c2cncc(Nc3nc(-c4cccc(CC(C)(C)C(=O)O)c4)ccc3F)n2)C1 [Example 100, (R)-3-(3-(6-((6-(3-(2-ethoxyphenoxy)piperidin-1-yl)pyrazin-2-yl)amino)-5-fluoropyridin-2-yl)phenyl)-2,2-dimethylpropanoic Acid]
400	CCOc1ccccc1O[C@@H]1CCCN(c2cncc(Nc3cccc(-c4cc(OC(C)(C)C(=O)O)ccc4F)n3)n2)C1 [Example 84, (R)-2-(3-(6-((6-(3-(2-ethoxyphenoxy)piperidin-1-yl)pyrazin-2-yl)amino)pyridin-2-yl)-4-fluorophenoxy)-2-methylpropanoic Acid]
380	CCOc1cc(F)ccc1O[C@@H]1CCCN(c2cncc(Nc3cccc(-c4ccc(OC(C)(C)C(=O)O)cc4)n3)n2)C1 [Example 177, (R)-2-(4-(6-((6-(3-(2-ethoxy-4-fluorophenoxy)piperidin-1-yl)pyrazin-2-yl)amino)pyridin-2-yl)phenoxy)-2-methylpropanoic Acid]
330	CCOc1ccccc1O[C@@H]1CCCN(c2cncc(Nc3cccc(N4CCC(CC(=O)O)CC4)n3)n2)C1 [Example 57, (R)-2-(1-(6-((6-(3-(2-ethoxyphenoxy)piperidin-1-yl)pyrazin-2-yl)amino)pyridin-2-yl)piperidin-4-yl)acetic Acid]
290	CCOc1ccccc1O[C@@H]1CCCN(c2cncc(Nc3cccc(-c4cc(CC(C)(C)C(=O)O)ccc4F)n3)n2)C1 [Example 78, (R)-3-(3-(6-((6-(3-(2-ethoxyphenoxy)piperidin-1-yl)pyrazin-2-yl)amino)pyridin-2-yl)-4-fluorophenyl)-2,2-dimethylpropanoic Acid]
270	CCOc1cccnc1O[C@@H]1CCCN(c2cncc(Nc3cccc(-c4cc(CC(C)(C)C(=O)O)ccc4F)n3)n2)C1 [Example 79, (R)-3-(3-(6-((6-(3-((3-ethoxypyridin-2-yl)oxy)piperidin-1-yl)pyrazin-2-yl)amino)pyridin-2-yl)-4-fluorophenyl)-2,2-dimethylpropanoic Acid]
130	CCOc1ccccc1O[C@@H]1CCCN(c2cncc(Nc3nccc(-c4ccc(OC(C)(C)C(=O)O)cc4)n3)n2)C1 [Example 160, (R)-2-(4-(2-((6-(3-(2-ethoxyphenoxy)piperidin-1-yl)pyrazin-2-yl)amino)pyrimidin-4-yl)phenoxy)-2-methylpropanoic Acid]
